Test results: the supplement of paper PMC6045584
± gives the standard deviation of the averaged measurements.

Compound: O=C(O)C1(C(=O)O)CCC1.[NH2-].[NH2-].[Pt+2] [CARBOPLATIN]
Assay: surviving fraction relative to DMSO-only wells; higher = less growth inhibition
Settings: 50 nM; exposure time: 5 days
How it was run: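 A line counted only if its three screens reached replicate Pearson r >0.7 and median Z' >0.3. Tumour cells in log phase were seeded at 250–500 per well in 384-well plates and, after 24 hours, kept in continuous contact with inhibitors at 0.5, 1, 5, 10, 50, 100, 500 and 1000 nM for five days. Surviving fraction was taken from CellTiter-Glo luminescence relative to the median of DMSO-only wells.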

143B BONE and A549 LUNG are within error of each other in surviving fraction: 1.15 ± 0.15 for the first, 1.1 ± 0.011 for the second.

ASKA SYNOVIAL and BT20 BREAST are within error of each other in surviving fraction: 1.14 ± 0.073 for the first, 1.2 ± 0.088 for the second.

BT549 BREAST and CADOES1 SOFT TISSUE are within error of each other in surviving fraction: 1.05 ± 0.097 for the first, 0.96 ± 0.11 for the second.

CAL51 BREAST and CAL72 BONE are within error of each other in surviving fraction: 1.03 ± 0.077 for the first, 1.12 ± 0.084 for the second.

CAL120 BREAST and CASKI CERVIX are within error of each other in surviving fraction: 1.02 ± 0.044 for the first, 1.05 ± 0.025 for the second.

First: CCK81 LARGE INTESTINE
Second: CHLA90 AUTONOMIC GANGLIA
The surviving fraction of the first is lower: 0.77 ± 0.038 for the first, 1.14 ± 0.11 for the second.

CME SYNOVIAL and COLO320DM LARGE INTESTINE are within error of each other in surviving fraction: 1.35 ± 0.16 for the first, 1.2 ± 0.057 for the second.

Going from DU4475 BREAST to G292 BONE, the surviving fraction rises from 0.909 ± 0.029 to 1.04 ± 0.064.

Going from H23 LUNG to HCC38 BREAST, the surviving fraction falls from 1.03 ± 0.037 to 0.944 ± 0.04.

HCC78 LUNG and HCC202 BREAST are within error of each other in surviving fraction: 1 ± 0.22 for the first, 1.02 ± 0.23 for the second.

HCC1806 BREAST and HMLE3 BREAST are within error of each other in surviving fraction: 1.17 ± 0.081 for the first, 1.06 ± 0.042 for the second.

First: HMT3552 BREAST
Second: HOS BONE
The surviving fraction of the first is higher: 1.205 ± 0.0096 for the first, 1.15 ± 0.05 for the second.

HOSMNG BONE and HS57T BREAST are within error of each other in surviving fraction: 1.22 ± 0.069 for the first, 1.11 ± 0.084 for the second.

HSSYII SYNOVIAL and HT1080 SOFT TISSUE are within error of each other in surviving fraction: 0.965 ± 0.05 for the first, 1.03 ± 0.023 for the second.

HU09 BONE and HUO3N1 BONE are within error of each other in surviving fraction: 1.09 ± 0.046 for the first, 1.11 ± 0.05 for the second.

JIMT1 BREAST and LM7 BONE are within error of each other in surviving fraction: 1.09 ± 0.036 for the first, 1.11 ± 0.064 for the second.

LNCAP PROSTATE and MDAMB134 BREAST are within error of each other in surviving fraction: 1.09 ± 0.031 for the first, 1.01 ± 0.11 for the second.

MDAMB157 BREAST and MDAMB231 BREAST are within error of each other in surviving fraction: 1.06 ± 0.12 for the first, 1.01 ± 0.019 for the second.

MDAMB361 BREAST and MDAMB436 BREAST are within error of each other in surviving fraction: 0.873 ± 0.062 for the first, 1.09 ± 0.21 for the second.

MDAMB468 BREAST gave a surviving fraction of 1.1 ± 0.1.

Same assay, conditions: 100 nM; exposure time: 5 days

Going from 22RV1 PROSTATE to 93VU HEADNECK, the surviving fraction rises from 1.04 ± 0.12 to 1.28 ± 0.09.

143B BONE and A549 LUNG are within error of each other in surviving fraction: 1.13 ± 0.053 for the first, 1.06 ± 0.019 for the second.

ASKA SYNOVIAL and BT20 BREAST are within error of each other in surviving fraction: 1.27 ± 0.1 for the first, 1.29 ± 0.14 for the second.

Going from BT549 BREAST to CADOES1 SOFT TISSUE, the surviving fraction falls from 1.2 ± 0.072 to 0.962 ± 0.078.

CAL51 BREAST and CAL72 BONE are within error of each other in surviving fraction: 1.02 ± 0.022 for the first, 1.03 ± 0.23 for the second.

CAL120 BREAST and CASKI CERVIX are within error of each other in surviving fraction: 0.993 ± 0.033 for the first, 1.04 ± 0.021 for the second.

First: CCK81 LARGE INTESTINE
Second: CHLA90 AUTONOMIC GANGLIA
The surviving fraction of the first is lower: 0.782 ± 0.081 for the first, 1.11 ± 0.098 for the second.

Compared with CME SYNOVIAL, COLO320DM LARGE INTESTINE is lower in surviving fraction: 1.42 ± 0.024 for the first, 1.2 ± 0.15 for the second.

DU4475 BREAST and G292 BONE are within error of each other in surviving fraction: 0.975 ± 0.18 for the first, 1.04 ± 0.029 for the second.

Going from H23 LUNG to HCC38 BREAST, the surviving fraction falls from 1.15 ± 0.02 to 0.919 ± 0.13.

HCC78 LUNG and HCC202 BREAST are within error of each other in surviving fraction: 1.12 ± 0.2 for the first, 1.14 ± 0.018 for the second.

HCC1806 BREAST and HMLE3 BREAST are within error of each other in surviving fraction: 1.14 ± 0.14 for the first, 1.05 ± 0.11 for the second.

HMT3552 BREAST and HOS BONE are within error of each other in surviving fraction: 1.17 ± 0.059 for the first, 1.11 ± 0.033 for the second.

Going from HOSMNG BONE to HS57T BREAST, the surviving fraction falls from 1.23 ± 0.015 to 1.08 ± 0.033.

First: HSSYII SYNOVIAL
Second: HT1080 SOFT TISSUE
The surviving fraction of the first is lower: 0.97 ± 0.016 for the first, 1.04 ± 0.044 for the second.

HU09 BONE and HUO3N1 BONE are within error of each other in surviving fraction: 1.11 ± 0.13 for the first, 1.09 ± 0.034 for the second.

JIMT1 BREAST and LM7 BONE are within error of each other in surviving fraction: 0.949 ± 0.06 for the first, 1.08 ± 0.094 for the second.

LNCAP PROSTATE and MDAMB134 BREAST are within error of each other in surviving fraction: 1.04 ± 0.046 for the first, 0.969 ± 0.24 for the second.

MDAMB157 BREAST and MDAMB231 BREAST are within error of each other in surviving fraction: 0.957 ± 0.056 for the first, 1.02 ± 0.038 for the second.

MDAMB361 BREAST and MDAMB436 BREAST are within error of each other in surviving fraction: 0.754 ± 0.1 for the first, 0.906 ± 0.078 for the second.

MDAMB468 BREAST gave a surviving fraction of 1.02 ± 0.019.

Same assay, conditions: 500 nM; exposure time: 5 days

Going from 22RV1 PROSTATE to 93VU HEADNECK, the surviving fraction rises from 1.06 ± 0.068 to 1.19 ± 0.027.

143B BONE and A549 LUNG are within error of each other in surviving fraction: 1.13 ± 0.11 for the first, 1.07 ± 0.032 for the second.

ASKA SYNOVIAL and BT20 BREAST are within error of each other in surviving fraction: 1.1 ± 0.097 for the first, 1.33 ± 0.16 for the second.

BT549 BREAST and CADOES1 SOFT TISSUE are within error of each other in surviving fraction: 0.967 ± 0.034 for the first, 1.1 ± 0.11 for the second.

CAL51 BREAST and CAL72 BONE are within error of each other in surviving fraction: 1.09 ± 0.022 for the first, 1.1 ± 0.11 for the second.

CAL120 BREAST and CASKI CERVIX are within error of each other in surviving fraction: 0.986 ± 0.04 for the first, 1.03 ± 0.077 for the second.

Going from CCK81 LARGE INTESTINE to CHLA90 AUTONOMIC GANGLIA, the surviving fraction rises from 0.784 ± 0.082 to 1.09 ± 0.097.

CME SYNOVIAL and COLO320DM LARGE INTESTINE are within error of each other in surviving fraction: 1.3 ± 0.14 for the first, 1.15 ± 0.094 for the second.

Going from DU4475 BREAST to G292 BONE, the surviving fraction rises from 0.895 ± 0.06 to 1.01 ± 0.021.

H23 LUNG and HCC38 BREAST are within error of each other in surviving fraction: 1.09 ± 0.046 for the first, 0.962 ± 0.086 for the second.

HCC78 LUNG and HCC202 BREAST are within error of each other in surviving fraction: 0.973 ± 0.037 for the first, 1.27 ± 0.4 for the second.

HCC1806 BREAST and HMLE3 BREAST are within error of each other in surviving fraction: 1.04 ± 0.086 for the first, 1.02 ± 0.057 for the second.

Going from HMT3552 BREAST to HOS BONE, the surviving fraction falls from 1.25 ± 0.031 to 1.07 ± 0.02.

HOSMNG BONE and HS57T BREAST are within error of each other in surviving fraction: 1.091 ± 0.0096 for the first, 1.07 ± 0.092 for the second.

HSSYII SYNOVIAL and HT1080 SOFT TISSUE are within error of each other in surviving fraction: 0.959 ± 0.037 for the first, 1.03 ± 0.058 for the second.

HU09 BONE and HUO3N1 BONE are within error of each other in surviving fraction: 1.09 ± 0.076 for the first, 1.05 ± 0.016 for the second.

JIMT1 BREAST and LM7 BONE are within error of each other in surviving fraction: 1.03 ± 0.031 for the first, 1 ± 0.028 for the second.

LNCAP PROSTATE and MDAMB134 BREAST are within error of each other in surviving fraction: 1 ± 0.18 for the first, 1.05 ± 0.033 for the second.

MDAMB157 BREAST and MDAMB231 BREAST are within error of each other in surviving fraction: 0.949 ± 0.084 for the first, 1.03 ± 0.026 for the second.

First: MDAMB361 BREAST
Second: MDAMB436 BREAST
The surviving fraction of the first is lower: 0.798 ± 0.046 for the first, 1.02 ± 0.033 for the second.

MDAMB468 BREAST gave a surviving fraction of 1.08 ± 0.063.

Same assay, conditions: 1000 nM; exposure time: 5 days

22RV1 PROSTATE and 93VU HEADNECK are within error of each other in surviving fraction: 1.13 ± 0.17 for the first, 1.21 ± 0.1 for the second.

143B BONE and A549 LUNG are within error of each other in surviving fraction: 1.12 ± 0.11 for the first, 1.09 ± 0.012 for the second.

ASKA SYNOVIAL and BT20 BREAST are within error of each other in surviving fraction: 1.09 ± 0.086 for the first, 1.11 ± 0.069 for the second.

BT549 BREAST and CADOES1 SOFT TISSUE are within error of each other in surviving fraction: 1.16 ± 0.032 for the first, 1.02 ± 0.11 for the second.

CAL51 BREAST and CAL72 BONE are within error of each other in surviving fraction: 0.977 ± 0.024 for the first, 1.01 ± 0.15 for the second.

CAL120 BREAST and CASKI CERVIX are within error of each other in surviving fraction: 0.976 ± 0.034 for the first, 1.03 ± 0.058 for the second.

Compared with CCK81 LARGE INTESTINE, CHLA90 AUTONOMIC GANGLIA is higher in surviving fraction: 0.725 ± 0.043 for the first, 1.13 ± 0.14 for the second.

First: CME SYNOVIAL
Second: COLO320DM LARGE INTESTINE
The surviving fraction of the first is higher: 1.39 ± 0.082 for the first, 1.14 ± 0.1 for the second.

DU4475 BREAST and G292 BONE are the same in surviving fraction: 1.03 ± 0.035 for the first, 1.03 ± 0.064 for the second.

H23 LUNG and HCC38 BREAST are within error of each other in surviving fraction: 1.11 ± 0.067 for the first, 1 ± 0.12 for the second.

HCC78 LUNG and HCC202 BREAST are within error of each other in surviving fraction: 0.954 ± 0.18 for the first, 1.34 ± 0.34 for the second.

HCC1806 BREAST and HMLE3 BREAST are within error of each other in surviving fraction: 1.16 ± 0.14 for the first, 1.08 ± 0.13 for the second.

HMT3552 BREAST and HOS BONE are within error of each other in surviving fraction: 1.14 ± 0.088 for the first, 1.068 ± 0.0086 for the second.

First: HOSMNG BONE
Second: HS57T BREAST
The surviving fraction of the first is higher: 1.19 ± 0.013 for the first, 1.05 ± 0.054 for the second.

HSSYII SYNOVIAL and HT1080 SOFT TISSUE are within error of each other in surviving fraction: 0.958 ± 0.089 for the first, 1.06 ± 0.062 for the second.

HU09 BONE and HUO3N1 BONE are within error of each other in surviving fraction: 1.07 ± 0.12 for the first, 0.98 ± 0.068 for the second.

JIMT1 BREAST and LM7 BONE are within error of each other in surviving fraction: 0.95 ± 0.07 for the first, 1.02 ± 0.018 for the second.

Going from LNCAP PROSTATE to MDAMB134 BREAST, the surviving fraction falls from 0.977 ± 0.077 to 0.8405 ± 0.0021.

MDAMB157 BREAST and MDAMB231 BREAST are within error of each other in surviving fraction: 0.943 ± 0.13 for the first, 1.02 ± 0.041 for the second.

Compared with MDAMB361 BREAST, MDAMB436 BREAST is higher in surviving fraction: 0.785 ± 0.028 for the first, 0.924 ± 0.088 for the second.

MDAMB468 BREAST gave a surviving fraction of 0.975 ± 0.072.
